Columns and labels:
Assay in all cases: ADP-Glo kinase assay
Type in all cases: biochemical
ABL1 = ABL1 (Homo sapiens, UniProt P00519); conditions: 10 µM ATP, read-out: % of residual activity; for remaining activity at 1 µM: ABL1, 1 µM compound; for remaining activity at 10 µM: ABL1, 10 µM compound
Procedure: (§1) Kinase enzymatic activities of CDK5/p25, CDK9/CyclinT, HASPIN, PIM1, GSK3β, CK1ε, ABL1, and JAK3 were assayed using the luminescent ADP detection assay described in Zegzouti et al. (ADP-GloTM assay kit provided by Promega, Madison, WI, USA). Briefly, the reactions were carried out in appropriate kinase buffer, with either protein or peptide as substrate in the presence of 10 µM ATP. Assay conditions used for each kinase tested here are described in Ibrahim et al.. The Envision (PerkinElmer, Waltham, MA, USA) microplate luminometer was used to measure the transmitted signal expressed in Relative Light Unit (RLU). In order to determine the half maximal inhibitory concentration (IC50), the assays were performed in duplicate in the absence or presence of increasing doses of the tested compounds. Kinase activities are expressed in % of maximal activity, i.e., measured in the absence of inhibitor but with a similar dose of DMSO (solvent of the tested compounds).

CDK5/p25 = CDK5/p25 (Homo sapiens, UniProt Q00535); conditions: 10 µM ATP, read-out: % of residual activity; for remaining activity at 1 µM: CDK5/p25, 1 µM compound; for remaining activity at 10 µM: CDK5/p25, 10 µM compound
Procedure: as §1

CDK9/CyclinT = CDK9/CyclinT (Homo sapiens, UniProt P50750); conditions: 10 µM ATP, read-out: % of residual activity; for remaining activity at 1 µM: 1 µM compound; for remaining activity at 10 µM: 10 µM compound
Procedure: as §1

CK1ε = CK1ε (Homo sapiens, UniProt P49674); conditions: 10 µM ATP, read-out: % of residual activity; for remaining activity at 1 µM: 1 µM compound; for remaining activity at 10 µM: 10 µM compound
Procedure: as §1

GSK3β = GSK3β (Homo sapiens, UniProt P49841); conditions: for remaining activity at 1 µM: 1 µM compound; for remaining activity at 1 µM / remaining activity at 10 µM: read-out: % of residual activity; for remaining activity at 10 µM: 10 µM compound
Procedure: as §1

HASPIN = biological target: T1, HASPIN (Homo sapiens, UniProt Q8TF76); conditions: 10 µM ATP, read-out: % of residual activity; for remaining activity at 1 µM: 1 µM compound; for remaining activity at 10 µM: 10 µM compound
T1 sequence (Q8TF76 470-798 limits assumed): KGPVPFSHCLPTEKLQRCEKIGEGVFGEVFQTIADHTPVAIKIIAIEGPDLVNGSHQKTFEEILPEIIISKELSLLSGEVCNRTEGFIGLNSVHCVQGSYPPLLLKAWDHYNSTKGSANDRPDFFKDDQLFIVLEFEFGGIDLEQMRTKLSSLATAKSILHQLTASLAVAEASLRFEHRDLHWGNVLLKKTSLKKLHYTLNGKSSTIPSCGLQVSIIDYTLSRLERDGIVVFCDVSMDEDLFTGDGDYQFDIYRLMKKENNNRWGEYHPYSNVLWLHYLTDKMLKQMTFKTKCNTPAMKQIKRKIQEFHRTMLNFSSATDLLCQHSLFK
Procedure: as §1

JAK3 = biological target: T2, JAK3 (Homo sapiens, UniProt P52333); conditions: for remaining activity at 1 µM: JAK3, 1 µM compound; for remaining activity at 1 µM / remaining activity at 10 µM: 10 µM ATP, read-out: % of residual activity; for remaining activity at 10 µM: JAK3, 10 µM compound
T2 sequence (P52333 1-1124): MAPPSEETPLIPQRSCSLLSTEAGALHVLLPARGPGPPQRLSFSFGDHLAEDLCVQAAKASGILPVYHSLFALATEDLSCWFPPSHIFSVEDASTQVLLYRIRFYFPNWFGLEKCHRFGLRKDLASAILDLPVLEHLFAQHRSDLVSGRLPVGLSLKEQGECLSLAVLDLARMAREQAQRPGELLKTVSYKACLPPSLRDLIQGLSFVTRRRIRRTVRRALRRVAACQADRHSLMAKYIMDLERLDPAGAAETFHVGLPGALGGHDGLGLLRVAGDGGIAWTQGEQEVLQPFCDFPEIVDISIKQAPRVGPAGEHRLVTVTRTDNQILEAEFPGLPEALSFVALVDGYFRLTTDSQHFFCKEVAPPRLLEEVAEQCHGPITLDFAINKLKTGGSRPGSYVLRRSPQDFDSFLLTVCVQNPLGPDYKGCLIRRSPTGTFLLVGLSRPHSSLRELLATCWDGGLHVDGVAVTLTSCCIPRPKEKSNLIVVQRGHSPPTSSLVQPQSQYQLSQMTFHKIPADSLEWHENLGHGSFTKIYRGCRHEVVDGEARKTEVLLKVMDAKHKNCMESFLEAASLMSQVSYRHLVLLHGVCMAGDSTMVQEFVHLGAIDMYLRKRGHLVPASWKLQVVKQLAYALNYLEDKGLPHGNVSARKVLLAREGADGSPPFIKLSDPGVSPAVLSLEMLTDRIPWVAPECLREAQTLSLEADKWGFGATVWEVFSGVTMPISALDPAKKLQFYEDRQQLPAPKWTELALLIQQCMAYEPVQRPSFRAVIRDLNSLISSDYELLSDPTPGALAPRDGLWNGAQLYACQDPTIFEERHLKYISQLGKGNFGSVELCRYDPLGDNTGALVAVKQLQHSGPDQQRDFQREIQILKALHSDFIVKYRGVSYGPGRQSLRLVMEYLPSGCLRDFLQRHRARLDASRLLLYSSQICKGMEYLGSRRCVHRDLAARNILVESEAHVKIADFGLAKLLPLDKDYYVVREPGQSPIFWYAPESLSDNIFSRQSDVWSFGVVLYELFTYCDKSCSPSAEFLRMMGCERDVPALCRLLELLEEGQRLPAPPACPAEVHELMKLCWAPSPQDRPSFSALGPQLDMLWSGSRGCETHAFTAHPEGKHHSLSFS
Procedure: as §1

PIM1 = PIM1 (Homo sapiens, UniProt P11309); conditions: for remaining activity at 1 µM: PIM1, 1 µM compound; for remaining activity at 1 µM / remaining activity at 10 µM: 10 µM ATP, read-out: % of residual activity; for remaining activity at 10 µM: PIM1, 10 µM compound
Procedure: as §1

[1] = JAK3, dose–response curve, Figure 5
[2] = PIM1, dose–response curve, Figure 5

Sequence of PIM1 (P11309 whole entry): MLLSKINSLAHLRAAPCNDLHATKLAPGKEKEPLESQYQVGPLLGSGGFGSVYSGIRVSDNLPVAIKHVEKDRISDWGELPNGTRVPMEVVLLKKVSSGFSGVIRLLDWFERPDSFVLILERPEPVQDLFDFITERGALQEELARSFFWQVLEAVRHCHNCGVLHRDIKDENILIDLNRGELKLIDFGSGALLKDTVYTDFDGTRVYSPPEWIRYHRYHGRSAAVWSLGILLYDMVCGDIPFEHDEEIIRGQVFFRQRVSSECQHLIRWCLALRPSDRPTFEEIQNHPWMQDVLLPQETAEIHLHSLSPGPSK
Sequence of ABL1 (P00519 whole entry): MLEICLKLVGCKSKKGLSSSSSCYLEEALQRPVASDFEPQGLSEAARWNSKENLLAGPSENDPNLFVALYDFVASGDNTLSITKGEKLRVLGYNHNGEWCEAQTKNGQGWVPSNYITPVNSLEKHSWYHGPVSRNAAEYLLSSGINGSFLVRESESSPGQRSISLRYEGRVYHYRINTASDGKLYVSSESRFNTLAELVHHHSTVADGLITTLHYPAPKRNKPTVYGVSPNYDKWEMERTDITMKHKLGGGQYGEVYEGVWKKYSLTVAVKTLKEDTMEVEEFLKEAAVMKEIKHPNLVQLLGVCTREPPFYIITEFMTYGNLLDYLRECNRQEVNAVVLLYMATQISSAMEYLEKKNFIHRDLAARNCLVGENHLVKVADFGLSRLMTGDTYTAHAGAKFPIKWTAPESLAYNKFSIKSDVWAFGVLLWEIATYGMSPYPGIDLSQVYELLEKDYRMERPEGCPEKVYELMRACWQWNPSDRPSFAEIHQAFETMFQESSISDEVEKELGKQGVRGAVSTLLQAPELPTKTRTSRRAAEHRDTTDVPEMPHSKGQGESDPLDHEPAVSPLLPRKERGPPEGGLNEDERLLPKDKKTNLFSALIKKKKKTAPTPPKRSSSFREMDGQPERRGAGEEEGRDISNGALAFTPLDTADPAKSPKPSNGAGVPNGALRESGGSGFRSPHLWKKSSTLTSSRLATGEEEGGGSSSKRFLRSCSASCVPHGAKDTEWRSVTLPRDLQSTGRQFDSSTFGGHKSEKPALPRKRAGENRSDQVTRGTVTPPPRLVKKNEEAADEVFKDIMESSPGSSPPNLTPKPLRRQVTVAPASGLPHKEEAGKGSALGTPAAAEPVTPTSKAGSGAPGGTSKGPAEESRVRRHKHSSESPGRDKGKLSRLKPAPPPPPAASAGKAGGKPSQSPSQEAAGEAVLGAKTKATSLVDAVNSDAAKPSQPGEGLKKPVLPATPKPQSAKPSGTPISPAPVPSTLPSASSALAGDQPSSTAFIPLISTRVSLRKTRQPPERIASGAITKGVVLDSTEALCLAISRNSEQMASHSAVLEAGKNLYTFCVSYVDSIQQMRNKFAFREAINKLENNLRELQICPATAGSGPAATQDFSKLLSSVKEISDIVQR
Sequence of CDK5/p25 (Q00535 whole entry): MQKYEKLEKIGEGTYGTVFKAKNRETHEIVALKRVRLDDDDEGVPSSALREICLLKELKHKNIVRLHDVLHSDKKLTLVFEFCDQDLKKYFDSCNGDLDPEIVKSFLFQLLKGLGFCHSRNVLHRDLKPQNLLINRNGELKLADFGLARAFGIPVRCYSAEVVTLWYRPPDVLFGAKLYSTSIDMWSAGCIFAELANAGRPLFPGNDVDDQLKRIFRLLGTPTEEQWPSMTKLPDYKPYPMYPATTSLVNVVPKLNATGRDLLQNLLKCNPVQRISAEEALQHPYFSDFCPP
Sequence of CDK5/p25 (Q15078 99-307 partner limits assumed): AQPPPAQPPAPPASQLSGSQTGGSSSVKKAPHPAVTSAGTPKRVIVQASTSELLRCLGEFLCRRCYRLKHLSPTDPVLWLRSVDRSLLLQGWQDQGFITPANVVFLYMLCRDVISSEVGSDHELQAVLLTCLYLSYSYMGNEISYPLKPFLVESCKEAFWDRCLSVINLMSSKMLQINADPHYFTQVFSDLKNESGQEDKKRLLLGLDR
Sequence of GSK3β (P49841 whole entry): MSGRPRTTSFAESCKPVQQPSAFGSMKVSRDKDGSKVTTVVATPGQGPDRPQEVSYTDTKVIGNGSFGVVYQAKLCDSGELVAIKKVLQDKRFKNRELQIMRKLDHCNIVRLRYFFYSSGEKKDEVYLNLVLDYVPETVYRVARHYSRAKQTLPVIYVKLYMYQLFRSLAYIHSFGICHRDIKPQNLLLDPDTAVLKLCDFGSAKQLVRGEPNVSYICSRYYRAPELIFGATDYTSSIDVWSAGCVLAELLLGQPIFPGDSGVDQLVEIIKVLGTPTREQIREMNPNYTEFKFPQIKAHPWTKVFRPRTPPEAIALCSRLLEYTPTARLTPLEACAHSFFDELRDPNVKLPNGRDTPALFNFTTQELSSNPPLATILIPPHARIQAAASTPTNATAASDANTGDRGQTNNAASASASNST
Sequence of CK1ε (P49674 whole entry): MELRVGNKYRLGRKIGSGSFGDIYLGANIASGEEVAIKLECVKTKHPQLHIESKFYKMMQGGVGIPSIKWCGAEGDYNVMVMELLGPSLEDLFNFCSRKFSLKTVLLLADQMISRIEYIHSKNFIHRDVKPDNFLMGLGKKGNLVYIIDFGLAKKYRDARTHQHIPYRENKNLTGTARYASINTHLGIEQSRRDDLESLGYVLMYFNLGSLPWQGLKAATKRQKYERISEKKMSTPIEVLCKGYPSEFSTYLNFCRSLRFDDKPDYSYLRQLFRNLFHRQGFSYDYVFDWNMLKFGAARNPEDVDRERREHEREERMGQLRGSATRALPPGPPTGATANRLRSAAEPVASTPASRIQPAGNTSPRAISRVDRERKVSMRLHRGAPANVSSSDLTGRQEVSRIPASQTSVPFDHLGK
Sequence of CDK9/CyclinT (P50750 whole entry): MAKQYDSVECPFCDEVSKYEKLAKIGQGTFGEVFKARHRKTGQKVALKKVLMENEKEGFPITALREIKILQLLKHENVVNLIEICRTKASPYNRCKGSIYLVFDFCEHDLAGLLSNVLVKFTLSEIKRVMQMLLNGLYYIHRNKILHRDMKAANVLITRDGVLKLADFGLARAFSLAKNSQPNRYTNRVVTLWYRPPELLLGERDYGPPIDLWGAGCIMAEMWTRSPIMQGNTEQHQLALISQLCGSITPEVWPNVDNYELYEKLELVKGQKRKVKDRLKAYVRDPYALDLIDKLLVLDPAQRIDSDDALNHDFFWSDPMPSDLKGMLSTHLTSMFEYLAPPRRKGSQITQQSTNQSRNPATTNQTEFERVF
Sequence of CDK9/CyclinT (O60563 whole entry partner): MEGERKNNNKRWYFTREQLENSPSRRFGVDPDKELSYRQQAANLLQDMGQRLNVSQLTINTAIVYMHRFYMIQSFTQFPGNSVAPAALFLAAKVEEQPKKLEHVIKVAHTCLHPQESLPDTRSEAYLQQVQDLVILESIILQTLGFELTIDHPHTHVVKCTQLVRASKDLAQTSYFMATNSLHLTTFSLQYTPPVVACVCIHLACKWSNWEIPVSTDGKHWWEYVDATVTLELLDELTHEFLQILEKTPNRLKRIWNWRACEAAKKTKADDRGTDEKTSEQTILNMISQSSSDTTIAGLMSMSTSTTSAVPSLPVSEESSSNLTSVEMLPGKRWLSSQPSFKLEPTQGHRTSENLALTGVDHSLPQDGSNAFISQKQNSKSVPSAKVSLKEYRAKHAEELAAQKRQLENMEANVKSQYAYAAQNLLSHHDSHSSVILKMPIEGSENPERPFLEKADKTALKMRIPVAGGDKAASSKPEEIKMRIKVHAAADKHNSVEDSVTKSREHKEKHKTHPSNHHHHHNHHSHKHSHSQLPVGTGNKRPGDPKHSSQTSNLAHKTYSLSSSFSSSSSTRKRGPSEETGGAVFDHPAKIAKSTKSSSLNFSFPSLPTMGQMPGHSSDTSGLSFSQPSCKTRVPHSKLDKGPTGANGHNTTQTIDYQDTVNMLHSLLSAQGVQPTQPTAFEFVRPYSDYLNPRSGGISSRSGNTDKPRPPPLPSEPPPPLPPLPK

Structure (SMILES)	remaining activity at 1 µM (ABL1) [%]	remaining activity at 10 µM (ABL1) [%]	remaining activity at 1 µM (CDK5/p25) [%]	remaining activity at 10 µM (CDK5/p25) [%]	remaining activity at 1 µM (CDK9/CyclinT) [%]	remaining activity at 10 µM (CDK9/CyclinT) [%]	remaining activity at 1 µM (CK1ε) [%]	remaining activity at 10 µM (CK1ε) [%]	remaining activity at 1 µM (GSK3β; 10 µM ATP) [%]	IC50 (GSK3β; 10 µM ATP) [µM]	remaining activity at 10 µM (GSK3β; 10 µM ATP) [%]	remaining activity at 1 µM (HASPIN) [%]	remaining activity at 10 µM (HASPIN) [%]	remaining activity at 1 µM (JAK3) [%]	remaining activity at 10 µM (JAK3) [%]	IC50 (JAK3; [1]) [µM]	remaining activity at 1 µM (PIM1) [%]	IC50 (PIM1; PIM1, 10 µM ATP) [µM]	remaining activity at 10 µM (PIM1) [%]	IC50 (PIM1; [2]) [µM]	further results
Cc1ccc(NC(=S)N/N=C2\C(=O)C3=C(OC(C)(C)CC3)c3ccccc32)cc1 [BV5, 2-(2,2-dimethyl-5-oxo-3,4-dihydro-2H-benzo[h]chromen-6(5H)-ylidene)-N-(p-tolyl)-thiocarbohydrazide]	83	56	≥ 100	62	≥ 100	78	98	86	64	4.91	24	≥ 100	≥ 100	64	4	0.522	94	8.74	42	8.74	IC50 (JAK3; JAK3, 10 µM ATP): 0.52 µM
CC1(C)CCC2=C(O1)c1ccccc1/C(=N/NC(=S)Nc1ccc([N+](=O)[O-])cc1)C2=O [BV3, 2-(2,2-dimethyl-5-oxo-3,4-dihydro-2H-benzo[h]chromen-6(5H)-ylidene)-N-(4nitrophen-yl)thio-carbohydrazide]	52	35	≥ 100	44	≥ 100	67	≥ 100	98	58	1	7	≥ 100	≥ 100	-3	-9	0.115	≥ 100	4.15	18	4.16	IC50 (GSK3β; dose–response curve, Figure 5): 1 µM
CC1(C)CCC2=C(O1)c1ccccc1C(=O)C2=O [β-lap, β-Lapachone]	83	81	74	88	≥ 100	72	≥ 100	94	67		43	≥ 100	91	65	69		56		42		

Source: paper PMC12196213, “New Insights into the Anticancer Effects and Toxicogenomic Safety of Two β-Lapachone Derivatives” (Pharmaceuticals, 2025)
